Key:
[1] = target: Sigma non-opioid intracellular receptor 1 (Cavia porcellus) (UniProt Q60492); experiment: Ability to displace [3H](+)-pentazocine from Sigma opioid receptor type 1 of guinea pig brain
[2] = target: Sigma-2 receptor (TMEM97) (Rattus norvegicus); experiment: Ability to displace [3H]ditolylguanidine in the presence of 100 nM (+)-pentazocine from Sigma opioid receptor type 2 of rat liver

Sigma non-opioid intracellular receptor 1 (Cavia porcellus), sequence (Q60492 whole entry, looked up): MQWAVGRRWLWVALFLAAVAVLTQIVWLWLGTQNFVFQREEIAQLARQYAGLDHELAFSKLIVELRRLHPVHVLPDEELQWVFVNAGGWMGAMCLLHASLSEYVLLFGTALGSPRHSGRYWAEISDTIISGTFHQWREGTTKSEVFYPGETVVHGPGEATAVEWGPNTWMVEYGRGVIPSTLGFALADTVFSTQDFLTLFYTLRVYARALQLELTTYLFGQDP

Compound | Ki [1] [nM] | Ki [2] [nM]
OCC1Cc2ccccc2C2(CCN(Cc3ccccc3)CC2)O1 (configuration not stated) [1'-benzylspiro[3,4-dihydro-1H-isochromene-1,4'-(hexahydropyridine)]-3-ylmethanol] | 7.16 | 2090
CNCCC1Cc2ccccc2C2(CCN(Cc3ccccc3)CC2)O1 (configuration not stated) [1N-methyl-2-[1'-benzylspiro[3,4-dihydro-1H-isochromene-1,4'-(hexahydropyridine)]-3-yl]-1-ethanamine] | 148 | 4360
CNC(=O)CC1Cc2ccccc2C2(CCN(Cc3ccccc3)CC2)O1 (configuration not stated) [1N-methyl-2-[1'-benzylspiro[3,4-dihydro-1H-isochromene-1,4'-(hexahydropyridine)]-3-yl]acetamide] | 170 | 
OCCC1Cc2ccccc2C2(CCN(Cc3ccccc3)CC2)O1 (configuration not stated) [2-[1'-benzylspiro[3,4-dihydro-1H-isochromene-1,4'-(hexahydropyridine)]-3-yl]-1-ethanol] | 12.7 | 8460
O=CCC1Cc2ccccc2C2(CCN(Cc3ccccc3)CC2)O1 (configuration not stated) [2-[1'-benzylspiro[3,4-dihydro-1H-isochromene-1,4'-(hexahydropyridine)]-3-yl]acetaldehyde] | 55.1 | 9910
CCOC(=O)C1Cc2ccccc2C2(CCN(Cc3ccccc3)CC2)O1 (configuration not stated) [ethyl 1'-benzylspiro[3,4-dihydro-1H-isochromene-1,4'-(hexahydropyridine)]-3-carboxylate] | 9.33 | 10500
CCOC(=O)CC1OC2(CCN(Cc3ccccc3)CC2)c2ccccc21 (configuration not stated) [ethyl 2-[1'-benzylspiro[1,3-dihydroisobenzofuran-1,4'-(hexahydropyridine)]-3-yl]acetate] | 15.1 | 6770
CCOC(=O)CC1Cc2ccccc2C2(CCN(Cc3ccccc3)CC2)O1 (configuration not stated) [ethyl 2-[1'-benzylspiro[3,4-dihydro-1H-isochromene-1,4'-(hexahydropyridine)]-3-yl]acetate] | 183 | 22700

The remaining lines, values ahead:

Ki [1] [nM] | Ki [2] [nM] | Compound
2.18 |  | N#CC1OC2(CCN(Cc3ccccc3)CC2)c2ccccc21 (configuration not stated) [1'-benzylspiro[1,3-dihydroisobenzofuran-1,4'-(hexahydropyridine)]-3-carbonitrile]
2.16 | 1660 | N#CCC1OC2(CCN(Cc3ccccc3)CC2)c2ccccc21 (configuration not stated) [1'-benzylspiro[1,3-dihydroisobenzofuran-1,4'-(hexahydropyridine)]-3-ylmethyl cyanide]
15.9 | 4700 | N#CCC1Cc2ccccc2C2(CCN(Cc3ccccc3)CC2)O1 (configuration not stated) [1'-benzylspiro[3,4-dihydro-1H-isochromene-1,4'-(hexahydropyridine)]-3-ylmethyl cyanide]
8.95 | 7130 | CCOC(=O)C1OC2(CCN(Cc3ccccc3)CC2)c2ccccc21 (configuration not stated) [ethyl 1'-benzylspiro[1,3-dihydroisobenzofuran-1,4'-(hexahydropyridine)]-3-carboxylate]

Reference: BindingDB's records for doi:10.1021/jm020889p (2002)
